Test [1] deals with D3R. As to conditions: read-out: Ki at D3R, previously reported; using [3H]spiperone; cited from earlier work.
Test [2] has as its system D3R. As to conditions: concentrations up to 1 μM, data not shown; ref 22 (McCall et al. 2005); cited from earlier work.
The target in a further test is hD3R (Homo sapiens, UniProt P35462). The experiment in a line: biochemical. It counts as binding.
The target of a further test is hD2R (Homo sapiens, UniProt P14416). The experiment in a line: biochemical. It counts as binding.
hD2R, sequence (P14416 whole entry): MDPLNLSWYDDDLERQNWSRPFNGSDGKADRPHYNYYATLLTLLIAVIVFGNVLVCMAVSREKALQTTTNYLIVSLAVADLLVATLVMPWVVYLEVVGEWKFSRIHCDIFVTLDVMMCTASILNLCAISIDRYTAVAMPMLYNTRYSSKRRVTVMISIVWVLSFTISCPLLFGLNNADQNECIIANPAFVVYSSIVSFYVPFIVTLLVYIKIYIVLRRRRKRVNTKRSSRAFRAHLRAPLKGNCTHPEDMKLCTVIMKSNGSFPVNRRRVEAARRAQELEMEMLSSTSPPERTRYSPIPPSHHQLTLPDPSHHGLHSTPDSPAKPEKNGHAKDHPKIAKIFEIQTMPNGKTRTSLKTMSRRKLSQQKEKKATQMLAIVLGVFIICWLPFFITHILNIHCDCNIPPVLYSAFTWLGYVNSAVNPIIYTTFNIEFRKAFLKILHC

Data on five molecules can be found in paper PMC4915350 (Journal of Medicinal Chemistry, 2016).

hD3R, sequence (P35462 whole entry): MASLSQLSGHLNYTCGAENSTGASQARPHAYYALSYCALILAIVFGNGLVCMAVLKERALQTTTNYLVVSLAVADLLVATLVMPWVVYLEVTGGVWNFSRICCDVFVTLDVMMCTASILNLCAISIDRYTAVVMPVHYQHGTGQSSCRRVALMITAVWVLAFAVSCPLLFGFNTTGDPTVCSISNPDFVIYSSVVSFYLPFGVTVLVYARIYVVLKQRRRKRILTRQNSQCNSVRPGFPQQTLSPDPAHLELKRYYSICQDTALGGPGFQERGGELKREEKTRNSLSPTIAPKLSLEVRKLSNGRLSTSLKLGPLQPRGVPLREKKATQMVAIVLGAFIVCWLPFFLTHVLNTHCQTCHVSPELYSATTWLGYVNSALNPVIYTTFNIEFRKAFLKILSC

In general, Ki refers to the dissociation constant of the complex between target and ligand, obtained from inhibition or displacement. Take `CN[C@@H]1Cc2cccc3[nH]c(=O)n(c23)C1` [Compound 1, (R)-5,6-dihydro-5-(methylamino)-4H-imidazo[4,5,1-ij]quinolin-2(1H)-one (Z)-2-butenedioate]: on D3R [1], the Ki is 1940 nM. For the same molecule, in the test with D3R [2], the “activity in D3R-mediated mitogenesis assay, previously reported” value is on record as “no activity was observed”.
With `N[C@@H]1Cc2cccc3[nH]c(=O)n(c23)C1` [Compound 12a, (R)-5-Amino-5,6-dihydro-4H-imidazo[4,5,1-ij]quinolin-2(1H)-one], at hD3R ([3H]7-OH-DPAT as tracer), the “fold reduction of D3R affinity relative to 1” value was about 6 fold. The “fold reduction of D2R affinity relative to 1” value at hD2R was about 6 fold.
Take `CCCN(CCC)[C@@H]1Cc2cccc3nc(O)n(c23)C1` [Compound 14a, (R)-5-(Dipropylamino)-5,6-dihydro-4H-imidazo[4,5,1-ij]quinolin-2(1H)-one]: the “fold decrease of D2R affinity relative to 13” value on hD2R was about 4 fold.
Consider `CCCN(C)[C@@H]1Cc2cccc3[nH]c(=O)n(c23)C1` [Compound 14c, (R)-5-[Methyl(propyl)amino]-5,6-dihydro-4H-imidazo[4,5,1-ij]quinolin-2(1H)-one], for which the “D2R selectivity over D3R (D3R/D2R)” value on hD2R is about 8 fold.
Take `CCCN(CCC)[C@@H]1Cc2cccc3c2n(c(=O)n3CCC)C1` [Compound 15, (R)-5-(Dipropylamino)-1-propyl-5,6-dihydro-4H-imidazo[4,5,1-ij]quinolin-2(1H)-one]: the Ki on hD3R and on hD2R was about 3 nM in each case.
